The nature of one series: in vitro. Particulars: female, CD9, mouse, microsomes, three replicates.
For series [1], the target named is T1, DCN1-UBE2M interaction (Homo sapiens, UniProt Q96GG9). Nature of the series: biochemical. The series is classed as binding.
For series [2] the following is noted: for adverse reactions or compound-related side effects after IV dosing: 48 h monitoring after single IV dose.
Series [3] concerns the target T1, DCN1-UBE2M interaction. The note with it: previously reported potency; cited from earlier work.
For series [4], the system named is HCC95 cells. Particulars: cited from earlier work.
The nature of series [5]: Liver microsomal stability. The note with it: for t(1/2): mouse microsomes, 0.8 μM, mean ± SD, three replicates.
A short description of series [6]: in vivo. On the set-up: species or system mice.
The format of series [7] is in vivo, mice. The note with it: 14 days, 200 mg/kg oral QD or BID.
The subject of series [8] is HCC95 cells. As to the kind of experiment: Western blot for cellular neddylation and substrate levels. The series is classed as cell-based.
In series [9] the test system is DCN1/2 over remaining human DCN isoforms. The note with it: cited from earlier work.
The test system of series [10] is HCC95 cells. The note with it: cited from earlier work. This is another data set of the same source.
Series [11] in a line: in vivo. The note with it: mouse, iv, 1.5 mg/kg, t1/2 (IV half-life), IV 0.5, 1.0 and 1.5 mg/kg, plasma.
The mark [12] stands for this setting: pH 7.4, CLint, Table 1, mean ± SD.
Setting [13] is: pH 7.4, CLint’, Table 2, mean ± SD.
Setting [14] is: IC50, rounded values in running text.
The mark [15] stands for this setting: pH 7.4, CLint’, Table 3, mean ± SD.
Setting [16] is: female, CD9, mouse, microsomes, pH 7.4.
Where [17] appears, read: pH 7.4, CLint’, Table 5, mean ± SD.

Several values for one entry are separate records, joined by “and”; a condition that tells them apart may be missing. Equal entries are not always repeated. Where two headings read alike, the source gives them in different places.

T1 sequence (Q96GG9 whole entry): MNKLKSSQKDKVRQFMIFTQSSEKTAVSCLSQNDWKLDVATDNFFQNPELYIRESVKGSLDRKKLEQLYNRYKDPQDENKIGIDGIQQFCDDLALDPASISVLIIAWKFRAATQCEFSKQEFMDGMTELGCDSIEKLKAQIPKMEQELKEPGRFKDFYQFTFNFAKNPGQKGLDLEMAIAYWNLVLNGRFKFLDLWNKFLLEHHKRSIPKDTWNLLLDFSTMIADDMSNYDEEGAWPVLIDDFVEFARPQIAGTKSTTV

On to `CCCN1CCC(N(Cc2ccc3c(c2)OCO3)C(=O)Nc2cccc(C(F)(F)F)c2)CC1` [Compound 1], for which the CLint scaled at 0.8 μM in the series “in vitro” (setting [12]) was greater than 500 mL/min/kg.
As for `O=C(Nc1cccc(C(F)(F)F)c1)NC1CCN(Cc2ccccc2)CC1` [Compound 2], the CLint scaled at 0.8 µM in “in vitro” (setting [12]) turned out to be 91.4 ± 8.12 mL/min/kg.
Still for that read-out and setting: to `CCCN1CCC(N(Cc2ccco2)C(=O)Nc2cccc(C(F)(F)F)c2)CC1` [Compound 3] belongs 394 ± 55.2 mL/min/kg.
Same read-out and setting: to `CCCN1CCC(N(Cc2ccccc2)C(=O)Nc2cccc(C(F)(F)F)c2)CC1` [Compound 4] belongs 318 ± 29.6 mL/min/kg.
In the series “in vitro” (setting [12]), `O=C(Nc1cccc(C(F)(F)F)c1)N(Cc1ccccc1)C1CCN(CC2CC2)CC1` [Compound 5] displayed a CLint scaled at 0.8 μM greater than 500 mL/min/kg.
`CCCCN1CCC(N(Cc2ccccc2)C(=O)Nc2cccc(C(F)(F)F)c2)CC1` [Compound 6]: the CLint scaled at 0.8 µM in “in vitro” (setting [12]) was determined as 361 ± 45.1 mL/min/kg.
Turning to `CCCC(C)N1CCC(N(Cc2ccccc2)C(=O)Nc2cccc(C(F)(F)F)c2)CC1` (stereo not shown) [Compound 7, 1-benzyl-1-(1-(pentan-2-yl)piperidin-4-yl)-3-(3-(trifluoromethyl)phenyl)urea], on DCN1-UBE2M interaction [1], the “fold more potent than initial hit (compound 2)” value was 100 fold. The “adverse reactions or compound-related side effects after IV dosing” value in series [2] is “We did not observe any adverse reactions or compound-related side effects”. Further, in [2] (IV 0.5, 1.0 and 1.5 mg/kg, plasma), the “t1/2 (IV half-life)” value is 8.4 to 12 min. On DCN1-UBE2M interaction [3], the IC50 is 60 nM. Further, in the series on HCC95 cells [4] (HCC95 cells), the “steady-state levels of cullin neddylation” value was “suppresses steady-state levels of cullin neddylation”. The molecule also came in with a CLint scaled at 0.8 μM in the series “in vitro” (setting [12]) of 165 ± 25.9 mL/min/kg. Besides, in series [5] (Table 1), the “t(1/2)” value stood at 0.327 ± 0.010 h.
`CCCCN1CCC(N(Cc2ccc3c(c2)OCO3)C(=O)Nc2cccc(C(F)(F)F)c2)CC1` [Compound 8]: the CLint scaled at 0.8 µM in “in vitro” (setting [12]) was determined as 220 ± 12.8 mL/min/kg.
On the same count and under the same terms, as for `CC(C)(C)N1CCC(N(Cc2ccc3c(c2)OCO3)C(=O)Nc2cccc(C(F)(F)F)c2)CC1` [Compound 9], the figure is 434 ± 21.1 mL/min/kg; as for `CCCN1CCC(N(Cc2cc(F)cc(C(F)(F)F)c2)C(=O)Nc2cccc(C(F)(F)F)c2)CC1` [Compound 10], 199 ± 9.99 mL/min/kg.
In the case of `CCCC(C)N1CCC(N(Cc2ccccc2)C(=O)Nc2cccc(F)c2)CC1` (stereo not shown) [Compound 21], in “in vitro” (setting [13]), the CLint scaled at 0.8 μM was no less than 500 mL/min/kg.
The same measure, in the same setting: as for `CCCC(C)N1CCC(N(Cc2ccccc2)C(=O)Nc2cccc(Cl)c2)CC1` (stereo not shown) [Compound 22], the figure is no less than 500 mL/min/kg.
In the series “in vitro” (setting [13]), `CCCC(C)N1CCC(N(Cc2ccccc2)C(=O)Nc2cccc(C(C)C)c2)CC1` (stereo not shown) [Compound 23] registered a CLint scaled at 0.8 µM of 256 ± 22.4 mL/min/kg.
`CCCC(C)N1CCC(N(Cc2ccccc2)C(=O)Nc2ccc(C(F)(F)F)cc2)CC1` (stereo not shown) [Compound 24] displayed a CLint scaled at 0.8 µM in “in vitro” (setting [13]) of 125 ± 3.17 mL/min/kg.
`CCCC(C)N1CCC(N(Cc2ccccc2)C(=O)Nc2ccc(Cl)cc2)CC1` (stereo not shown) [Compound 25]: at DCN1-UBE2M interaction [1] (IC50), the IC50 was found to be 100 nM. For the same molecule, the CLint scaled at 0.8 µM in the series “in vitro” (setting [13]) is 156 ± 10.7 mL/min/kg.
`CCCC(C)N1CCC(N(Cc2ccccc2)C(=O)Nc2ccc(Br)cc2)CC1` (stereo not shown) [Compound 26] yielded an IC50 on DCN1-UBE2M interaction [1] (setting [14]) of roughly 60 nM. In the series “in vitro” (setting [13]), this molecule had a CLint scaled at 0.8 µM of 148 ± 7.63 mL/min/kg.
Take `CCCC(C)N1CCC(N(Cc2ccccc2)C(=O)Nc2ccc(I)cc2)CC1` (stereo not shown) [Compound 27]: the 50% inhibitory concentration (IC50) against DCN1-UBE2M interaction [1] (setting [14]) was ~60 nM and 50 nM. For the same molecule, in “in vitro” (setting [13]), the CLint scaled at 0.8 µM is 115 ± 2.78 mL/min/kg.
`CCCC(C)N1CCC(N(Cc2ccccc2)C(=O)Nc2ccc(C)cc2)CC1` (stereo not shown) [Compound 28] registered a CLint scaled at 0.8 µM in “in vitro” (setting [13]) of 356 ± 31.9 mL/min/kg.
The same measure, in the same setting: as for `CCCC(C)N1CCC(N(Cc2ccccc2)C(=O)Nc2ccc(C(C)C)cc2)CC1` (stereo not shown) [Compound 29], the figure is 323 ± 4.46 mL/min/kg.
`CCCC(C)N1CCC(N(Cc2ccccc2)C(=O)Nc2ccc(Cl)c([N+](=O)[O-])c2)CC1` (stereo not shown) [Compound 31] came in with a CLint scaled at 0.8 µM in the series “in vitro” (setting [15]) of 151 ± 10.2 mL/min/kg.
Turning to `CCCC(C)N1CCC(N(Cc2ccccc2)C(=O)Nc2ccc(F)c(F)c2)CC1` (stereo not shown) [Compound 32], the CLint scaled at 0.8 µM in “in vitro” (setting [15]) was 302 ± 15.2 mL/min/kg.
For the molecule `CCCC(C)N1CCC(N(Cc2ccccc2)C(=O)Nc2ccc(C)c(F)c2)CC1` (stereo not shown) [Compound 33], in “in vitro” (setting [15]), the CLint scaled at 0.8 µM stood at 381 ± 31.9 mL/min/kg.
Turning to `CCCC(C)N1CCC(N(Cc2ccccc2)C(=O)Nc2ccc(C#N)c(C(F)(F)F)c2)CC1` (stereo not shown) [Compound 34], in series [5] (setting [16]), the CLint scaled at 0.8 µM worked out at 61.3 ± 3.49 mL/min/kg and the CLint scaled at 0.8 μM was found to be 60 mL/min/kg.
For `CCCC(C)N1CCC(N(Cc2ccccc2)C(=O)Nc2ccc(F)c(C(F)(F)F)c2)CC1` (stereo not shown) [Compound 35], the CLint scaled at 0.8 µM in “in vitro” (setting [15]) was 145 ± 9.51 mL/min/kg.
Same read-out and setting: as for `CCCC(C)N1CCC(N(Cc2ccccc2)C(=O)Nc2cc(F)cc(C(F)(F)F)c2)CC1` (stereo not shown) [Compound 36], the figure is 291 ± 22.4 mL/min/kg; as for `CCCC(C)N1CCC(N(Cc2ccccc2)C(=O)Nc2cc(C(F)(F)F)ccc2F)CC1` (stereo not shown) [Compound 38], 66.9 ± 5.15 mL/min/kg.
For the molecule `CCCC(C)N1CCC(N(Cc2ccccc2)C(=O)Nc2cc(Cl)ccc2F)CC1` (stereo not shown) [Compound 39], the CLint scaled at 0.8 µM in “in vitro” (setting [15]) came out at 230 ± 13.1 mL/min/kg.
On to `CCCC(C)N1CCC(N(Cc2ccccc2)C(=O)Nc2ccc(C(F)(F)F)nc2C)CC1` (stereo not shown) [Compound 41], for which the CLint scaled at 0.8 μM in the series “in vitro” (setting [15]) was less than 13.5 mL/min/kg.
With `CCCC(C)N1CCC(N(Cc2ccccc2)C(=O)Nc2ccc3ncsc3c2)CC1` (stereo not shown) [Compound 42], the CLint scaled at 0.8 µM in the series “in vitro” (setting [15]) was determined as 240 ± 24 mL/min/kg.
In turn, `CCCC(C)N1CCC(N(Cc2ccccc2)C(=O)Nc2ccc3c(c2)CCC3)CC1` (stereo not shown) [Compound 43] registered a CLint scaled at 0.8 μM in the series “in vitro” (setting [15]) of no less than 500 mL/min/kg.
As for `CCCCN1CCC(N(Cc2ccccc2)C(=O)Nc2cc(F)cc(C(F)(F)F)c2)CC1` [Compound 47], the “fold reduction in biochemical potency versus compound 7” value at DCN1-UBE2M interaction [1] is given as “five-fold”. Further, the CLint scaled at 0.8 µM in “in vitro” (setting [17]) is 22.3 ± 4.88 mL/min/kg.
For `CCCCN1CCC(N(Cc2ccccc2)C(=O)Nc2cccc(Cl)c2)CC1` [Compound 63], the CLint scaled at 0.8 μM in “in vitro” (setting [17]) is no less than 500 mL/min/kg.
In turn, `CCCCN1CCC(N(Cc2ccccc2)C(=O)Nc2cccc(C)c2)CC1` [Compound 64] showed a CLint scaled at 0.8 µM in “in vitro” (setting [17]) of 305 ± 4.02 mL/min/kg.
For `CCCCN1CCC(N(Cc2ccccc2)C(=O)Nc2cccc(C#N)c2)CC1` [Compound 66], the CLint scaled at 0.8 µM in the series “in vitro” (setting [17]) was found to be 349 ± 22.5 mL/min/kg.
Take `CCCCN1CCC(N(Cc2ccccc2)C(=O)Nc2ccc(Cl)c(Cl)c2)CC1` [Compound 67, 1-benzyl-1-(1-butylpiperidin-4-yl)-3-(3,4-dichlorophenyl)urea]: the “fold lower clearance in mouse microsomes than compound 7” value is reported as “six-fold”. Further, the “adverse reaction after oral administration” value in “in vivo [6]” (48 h monitoring, any dose tested) is reported as “did not cause a significant adverse reaction at any dose tested”. Besides, the half-life in the series “in vivo [6]” (mouse, in vivo, po, 200 mg/kg) lay within 3 to 5 h. Besides, in series [7], the “adverse reactions or compound-related side effects, repeat dosing” value was “no adverse reactions or compound-related side effects were observed”. The gross substrate stabilization entry in the series on HCC95 cells [8] (HCC95) is “does not elicit gross substrate stabilization”. In addition, the “steady-state levels of neddylated CUL1 and CUL3” value in the series on HCC95 cells [8] (HCC95, 48 hours, dosing at T = 0 and T = 24 hr) was “inhibits steady-state levels of neddylated CUL1 and CUL3 in a dose-dependent manner”. In the series with HCC95 cells [8] (HCC95, 48 hours, longer exposures), the “levels of CUL1/CUL3 substrates NRF2 and p27” value is “dose-dependent increase”. Besides, the “adverse reactions or compound-related side effects after IV dosing” value in series [2] is reported as “failed to induce any measureable adverse reactions”. Also, the “steady-state levels of neddylated cullins (selectivity among cullins)” value with HCC95 cells [4] (HCC95) was “selectively reduces steady-state levels of neddylated CUL1 and CUL3 while CUL2, CUL4A, and CUL5 are relatively unaffected”. Moreover, in series [9], the “selectivity for DCN1/2 over other DCN isoforms” value is listed as “high level of selectivity for inhibition of DCN1/2 over the highly homologous remaining human DCN isoforms”. In addition, the anchorage-independent growth result with HCC95 cells [10] is reported as “inhibits the anchorage-independent growth of HCC95 cells”. In the series “in vivo [11]”, the half-life was in the range of 3 to 4 h. Besides, the CLint scaled at 0.8 μM in “in vitro” (setting [17]) amounted to 25.6 ± 4.08 mL/min/kg. In series [5] (Table 5), the “t(1/2)” value was 2.11 ± 0.336 h. Moreover, in series [5] (calculated by 1 - CL/Qh), the “bioavailability predicted from in vitro clearance (Fin vitro)” value was 78%.
In “in vitro” (setting [17]), `CCCCN1CCC(N(Cc2ccccc2)C(=O)Nc2cccc(C(F)(F)F)c2F)CC1` [Compound 69] showed a CLint scaled at 0.8 μM of no less than 500 mL/min/kg.
For the molecule `CCCCN1CCC(N(Cc2ccccc2)C(=O)Nc2ccc(F)c(C(F)(F)F)c2)CC1` [Compound 70], the CLint scaled at 0.8 µM in “in vitro” (setting [17]) worked out at 27.9 ± 2.71 mL/min/kg.
Still for that read-out and setting: as for `CCCCN1CCC(N(Cc2ccccc2)C(=O)Nc2ccc(C)c(Cl)c2)CC1` [Compound 71], the figure is 189 ± 14.5 mL/min/kg; as for `CCCCN1CCC(N(Cc2ccccc2)C(=O)Nc2ccc(F)c(Cl)c2)CC1` [Compound 72], 38.7 ± 1.63 mL/min/kg.

These data come from paper PMC5914176 (Journal of medicinal chemistry, 2018).
